Results taken from patent US6667414B2, “Use of propargyl glycine amino propargyl diol compounds for treatment of congestive heart failure” (Pharmacia Corporation, priority 1991, dated 2003).
Where a SMILES comes first, the peptide text is derived from it. [ ]: non-standard residue; d: D form. The star is where a group is joined. Sta = CC(C)C[C@H](N)[C@@H](O)CC(=O)O; Isovaleryl = CC(C)CC(=O)*

Legend:
[1] = molecular target: T1, human renin (Homo sapiens, UniProt P00797); experiment: Human renin inhibition in vitro; assay type: biochemical; settings: conversion of angiotensinogen to angiotensin I, 2 h at 37° C., pH 7.4
T1 construct: purchased National Institute for Biological Standards, London
T1 sequence (P00797 67-406): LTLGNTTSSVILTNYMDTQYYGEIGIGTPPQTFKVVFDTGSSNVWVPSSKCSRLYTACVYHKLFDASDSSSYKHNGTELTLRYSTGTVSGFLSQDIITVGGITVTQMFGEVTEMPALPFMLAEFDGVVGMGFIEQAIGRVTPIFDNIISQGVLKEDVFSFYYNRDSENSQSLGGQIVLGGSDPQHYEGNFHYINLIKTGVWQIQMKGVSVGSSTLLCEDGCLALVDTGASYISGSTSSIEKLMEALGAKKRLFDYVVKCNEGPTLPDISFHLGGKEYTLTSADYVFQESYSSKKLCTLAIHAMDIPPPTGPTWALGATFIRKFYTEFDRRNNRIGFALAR
Protocol: Compounds of Formula I were evaluated as inhibitors of human renin in an in vitro assay, as follows: This human renin inhibition test has been previously described in detail [Papaioannou et al., Clinical and Experimental Hypertension, A7(9), 1243-1257 (1985)-]. Human renin was obtained from the National Institute for Biological Standards, London. An incubation mixture was prepared containing the following components: in a total volume of 0.25 mL: 100 mM Tris-acetate buffer at pH 7.4, 25×10^−6 Goldblatt units of renin, 0.05 mL of plasma from human volunteers taking oral contraceptives, 6.0 mM Na-EDTA, 2.4 mM phenylmethyl sulfonyl fluoride, 1.5 mM 8-hydroxyquinoline, 0.4 mg/mL bovine serum albumin (BSA), and 0.024 mg/mL neomycin sulfate. This mixture was incubated for two hours at 37° C. in the presence or absence of renin inhibitors. The produced angiotensin I was determined by radioimmunoassay (New England Nuclear kit). Test compounds to be assayed were dissolved in DMSO and diluted with 100 mM Tris-acetate buffer at pH 7.4 containing 0.5% BSA to the appropriate concentration. The final concentration of organic solvent in the reaction mixture was less than 1%. Control incubations at 37° C. were used to correct for effects of organic solvent on renin activity.

[2] = tested on: hog renin; settings: after the injection of hog renin into nephrectomized rats; cited from earlier work

Row | Structure (SMILES) | IC50 [1] | blood pressure in vivo [2]
1 | C#CC[C@H](NC(=O)[C@@H](CC(=O)N(C)CCN(C)C)Cc1ccccc1)C(=O)N[C@@H](CC1CCCCC1)[C@@H](O)[C@@H](O)CC#C (relative stereo) [Example 1, N1-[1R*-[[[1S,1R*-(cyclohexylmethyl)-2S*,3R*-dihydroxyhexynyl]amino]carbonyl]-3-butynyl]-N-4-[2-(dimethylamino)ethyl]-N-4-methyl-2S*-(phenylmethyl)Butanediamide] | 34 nM | 
2 | CC(C)CC(=O)N[C@H](C(=O)N[C@H](C(=O)N[C@@H](CC(C)C)[C@@H](O)CC(=O)N[C@@H](C)C(=O)N[C@@H](CC(C)C)[C@@H](O)CC(=O)O)C(C)C)C(C)C [pepstatin] (Isovaleryl-VV[Sta]A[Sta]-OH) |  | reduce blood pressure
